Experimental findings from patent US10040791B2, “Isoxazole derivative as mutant isocitrate dehydrogenase 1 inhibitor” (Daiichi Sankyo Company, Limited, priority 2014, dated 2018) are described below.

Where a name gives a salt, the structure may show the parent alone.

Assay [1] relates to HT1080 xenografted mice (IDH1R132C). Description: 2-HG production inhibitory activity using HT1080 xenografted mice. Format: in vivo, mouse. The note with it: 2-HG production, HT1080 xenografted mice; for response vs control in vivo at 75 mg/kg: Mus musculus, HT-1080, po, 6 h, read-out: Test Example 5 Ratio (%). The method, then: HT1080 xenografted mice having successfully engrafted tumors were given by oral gavage each compound at 75 mg/kg a total of three times twice a day. The compound was suspended in a vehicle solution at 7.5 mg/mL using a homogenizer. Then, the suspension was stored at −20° C., thawed immediately before the administration, and given to mice. A negative control group for the test was given a vehicle by oral gavage. The body weights of the mice were measured using an automatic balance for small animals. The dosing solution was administered at a dose of 10 mL/kg body weight.
6 hours after the final administration, each mouse was euthanized with carbon dioxide. A portion of a tumor was collected, and its weight was measured using an electronic balance. Then, the tumor was frozen on dry ice. To the frozen tumor, methanol was added in an amount of 14 times the tumor weight. The resulting tumor was homogenized with Beads shocker (Yasui Kikai Corp.) and then incubated for 15 minutes in a freezer at −20° C. After centrifugation at 15000 rpm at 4° C. for 15 minutes using a high-speed refrigerated microcentrifuge, 250 μL of methanol and 400 μL of ultrapure water were added to 150 μL of the obtained supernatant. The prepared samples were subjected to 2-HG measurement.

The subject of assay [2] is HT-1080 cells expressing IDH1R132C. Nature of the assay: 2-HG production inhibitory activity using HT1080 cell. In kind it is cell-based, human. The note with it: Homo sapiens, HT-1080; 2-HG production, HT1080 cells; read-out: Test Example 3 IC50. The method, then: Then, 100 μL of growth medium B was added to each well, further 25 μL of a solution of each compound diluted to a predetermined concentration with growth medium B was added to each well, and the cells were incubated at 37° C. for 2 days under 5% CO2. […] Then, 150 μL of ultrapure water was further added to each well, and the mixture was stirred by pipetting and stored at −20° C.
The preserved solutions were thawed at room temperature.

The target of another assay is IDH1R132C (Homo sapiens (Human), UniProt O75874, R132C). Description: Inhibitory activity against IDH1R132C enzyme (NADPH detection, WST-8). The note with it: 10 nM, residual NADPH detected with WST-8, read-out: Test Example 1 IDH1 R132C IC50. In kind it is biochemical. The method, then: After transformation of Rosetta 2 (DE3) E. coli, the expression of the protein was induced with IPTG.
While NADPH-derived fluorescence was occasionally monitored, the reaction was terminated by the addition of 5 μL of 0.5 M EDTA before consumption of NADPH. 5 μL of WST-8 reagent (Dojindo Laboratories, #CK04) was further added and mixed therewith. 15 minutes later, the absorbance at 450 nm was measured using a plate reader (PerkinElmer, Inc., EnVision). The observed absorbance value reflects the amount of residual NADPH. From the absorbance data, the enzyme inhibitory activity of each compound at each concentration was calculated and analyzed using medical statistical analysis software GraphPad Prism to calculate an IC50 value.
For orientation: Tetrazolium assays rely on reduction of a dye to a coloured formazan, in cell work by metabolically active cells.

IDH1R132C, sequence (O75874 whole entry R132C): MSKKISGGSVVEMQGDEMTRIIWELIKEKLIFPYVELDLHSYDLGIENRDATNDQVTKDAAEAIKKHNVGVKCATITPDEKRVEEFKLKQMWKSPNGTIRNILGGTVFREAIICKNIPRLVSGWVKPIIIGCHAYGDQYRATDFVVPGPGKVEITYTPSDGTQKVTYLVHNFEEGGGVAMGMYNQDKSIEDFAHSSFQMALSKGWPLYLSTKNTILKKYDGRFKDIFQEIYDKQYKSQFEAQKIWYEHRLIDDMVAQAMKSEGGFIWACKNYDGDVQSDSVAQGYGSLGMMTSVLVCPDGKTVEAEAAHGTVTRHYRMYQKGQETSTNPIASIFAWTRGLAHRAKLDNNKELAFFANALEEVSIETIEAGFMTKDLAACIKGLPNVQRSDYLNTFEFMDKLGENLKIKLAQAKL

In the case of `C=CC(=O)N1CCN(c2onc(-c3c(Cl)cc(Cl)cc3Cl)c2C(=O)n2ccc3c(/C=C/C(=O)O)cccc32)C(C)C1` (stereo in doubt) [Example 146, (2E)-3-[1-({5-[(2R)-4-Acryloyl-2-methylpiperazin-1-yl]-3-(2,4,6-trichlorophenyl)-1,2-oxazol-4-yl}carbonyl)-1H-indol-4-yl]prop-2-enoic acid], the response vs control in vivo at 75 mg/kg in assay [1] came to 38%. Moreover, the IC50 in assay [2] came out at 104 nM; on IDH1R132C it was 144 nM.
The corresponding values for `CC1(c2onc(-c3c(Cl)cc(Cl)cc3Cl)c2C(=O)n2ccc3c(/C=C/C(=O)O)cccc32)COC1` [Example 1, (2E)-3-(1-{[5-(3-Methyloxetan-3-yl)-3-(2,4,6-trichlorophenyl)-1,2-oxazol-4-yl]carbonyl}-1H-indol-4-yl)prop-2-enoic acid] are 21%, 33 nM and 56 nM.
The corresponding values for `Cc1cn(C(=O)c2c(-c3c(Cl)cc(Cl)cc3Cl)noc2C2(C)COC2)c2cccc(/C=C/C(=O)O)c12` [Example 2, (2E)-3-(3-Methyl-1-{[5-(3-methyloxetan-3-yl)-3-(2,4,6-trichlorophenyl)-1,2-oxazol-4-yl]carbonyl}-1H-indol-4-yl)prop-2-enoic acid] are 18%, 18 nM and 47 nM.
The matching figures for `COC1(c2onc(-c3c(Cl)cc(Cl)cc3Cl)c2C(=O)n2ccc3c(/C=C/C(=O)O)cccc32)COC1` [Example 3, (2E)-3-(1-{[5-(3-Methoxyoxetan-3-yl)-3-(2,4,6-trichlorophenyl)-1,2-oxazol-4-yl]carbonyl}-1H-indol-4-yl)prop-2-enoic acid]: 42%, 60 nM and 64 nM.
Take `COC1(c2onc(-c3c(Cl)cc(Cl)cc3Cl)c2C(=O)n2cc(C)c3c(/C=C/C(=O)O)cccc32)COC1` [Example 4, (2E)-3-(1-{[5-(3-Methoxyoxetan-3-yl)-3-(2,4,6-trichlorophenyl)-1,2-oxazol-4-yl]carbonyl}-3-methyl-1H-indol-4-yl)prop-2-enoic acid]: the response vs control in vivo at 75 mg/kg in assay [1] was determined as 15%. The IC50 in assay [2] worked out at 27 nM; at IDH1R132C, 56 nM.
The corresponding values for `CC1(c2onc(-c3c(Cl)cc(Cl)cc3Cl)c2C(=O)n2cc3c4c(cccc42)/C(=C/C(=O)O)CC3)COC1` [Example 8, (2E)-[1-{[5-(3-Methyloxetan-3-yl)-3-(2,4,6-trichlorophenyl)-1,2-oxazol-4-yl]carbonyl}-3,4-dihydrobenzo[cd]indol-5(1H)-ylidene]ethanoic acid] are 67%, 22 nM and 55 nM.
On to `Cc1cn(C(=O)c2c(-c3c(Cl)cc(Cl)cc3Cl)noc2C(F)(F)F)c2cccc(/C=C/C(=O)O)c12` [Example 61, (2E)-3-(3-Methyl-1-{[3-(2,4,6-trichlorophenyl)-5-(trifluoromethyl)-1,2-oxazol-4-yl]carbonyl}-1H-indol-4-yl)prop-2-enoic acid], for which, in assay [1], the response vs control in vivo at 75 mg/kg came to 63%. Also, the IC50 in assay [2] amounted to 337 nM.
The matching figures for `Cc1cn(C(=O)c2c(-c3ccc(Cl)cc3Cl)noc2C2(C)COC2)c2cccc(/C=C/C(=O)O)c12` [Example 78, (2E)-3-(1-{[3-(2,4-Dichlorophenyl)-5-(3-methyloxetan-3-yl)-1,2-oxazol-4-yl]carbonyl}-3-methyl-1H-indol-4-yl)prop-2-enoic acid]: 50% and 281 nM.
In the case of `Cc1cn(C(=O)c2c(-c3c(Cl)cc(Cl)cc3Cl)noc2C2(C#N)CCC2)c2cccc(/C=C/C(=O)O)c12` [Example 93, (2E)-3-(1-{[5-(1-Cyanocyclobutyl)-3-(2,4,6-trichlorophenyl)-1,2-oxazol-4-yl]carbonyl}-3-methyl-1H-indol-4-yl)prop-2-enoic acid], in assay [1], the response vs control in vivo at 75 mg/kg turned out to be 119%. For the same molecule, in assay [2], the IC50 amounted to 42 nM.
For `C[C@@H]1CCC[C@H](C)N1c1onc(-c2c(Cl)cccc2Cl)c1C(=O)n1ccc2c(/C=C/C(=O)O)cccc21` [Example 137, (2E)-3-(1-{[3-(2,6-Dichlorophenyl)-5-(cis-2,6-dimethylpiperidin-1-yl)-1,2-oxazol-4-yl]carbonyl}-1H-indol-4-yl)prop-2-enoic acid], the values for the IC50 (in assay [2]; at IDH1R132C) were 299 nM and 189 nM, respectively.
The matching figures for `CN(C)c1onc(-c2c(Cl)cc(Cl)cc2Cl)c1C(=O)n1ccc2c(/C=C/C(=O)O)cccc21` [Example 138]: 288 nM and 88 nM.
On to `C=CC(=O)N1CCN(c2onc(-c3c(Cl)cccc3Cl)c2C(=O)n2ccc3c(/C=C/C(=O)O)cccc32)C(C)(C)C1` [Example 153, (2E)-3-(1-{[5-(4-Acryloyl-2,2-dimethylpiperazin-1-yl)-3-(2,6-dichlorophenyl)-1,2-oxazol-4-yl]carbonyl}-1H-indol-4-yl)prop-2-enoic acid], for which the values for the IC50 (in assay [2]; at IDH1R132C) were 166 nM and 130 nM, respectively.
The matching figures for `C=CC(=O)N1CC2(CC2)N(c2onc(-c3c(F)cccc3Cl)c2C(=O)n2cc(C)c3c(/C=C/C(=O)O)cccc32)C[C@H]1C` [Example 162, (2E)-3-[1-({5-[(6R)7-Acryloyl-6-methyl-4,7-diazaspiro[2.5]oct-4-yl]-3-(2-chloro-6-fluorophenyl)-1,2-oxazol-4-yl}carbonyl)-3-methyl-1H-indol-4-yl]prop-2-enoic acid]: 253 nM and 95 nM.
Turning to `Cn1cc(C(=O)c2c(-c3c(Cl)cc(Cl)cc3Cl)noc2C(C)(C)C)c2cccc(/C=C/C(=O)O)c21` [Example 164], the response vs control in vivo at 75 mg/kg in assay [1] was determined as 89%. Further, the IC50 in assay [2] came out at 330 nM.
On to `Cn1cc(C(=O)c2c(-c3c(Cl)cc(Cl)cc3Cl)noc2C2(C)CC2)c2cccc(/C=C/C(=O)O)c21` [Example 165], for which the figures for the IC50 (in assay [2]; at IDH1R132C) were 186 nM and 81 nM, respectively.
For `Cc1cn(C(=O)c2c(-c3c(Cl)cc(Cl)cc3Cl)noc2C(C)(C)F)c2cccc(/C=C/C(=O)O)c12` [Example 168, (2E)-3-(1-{[5-(2-Fluoropropan-2-yl)-3-(2,4,6-trichlorophenyl)-1,2-oxazol-4-yl]carbonyl}-3-methyl-1H-indol-4-yl)prop-2-enoic acid tert-butylamine salt], the response vs control in vivo at 75 mg/kg in assay [1] was 13%.
Regarding `Cc1cn(C(=O)c2c(-c3c(F)cc(Cl)cc3Cl)noc2C(C)(C)F)c2cccc(/C=C/C(=O)O)c12` [Example 169, (2E)-3-(1-{[3-(2,4-Dichloro-6-fluorophenyl)-5-(2-fluoropropan-2-yl)-1,2-oxazol-4-yl]carbonyl}-3-methyl-1H-indol-4-yl)prop-2-enoic acid tert-butylamine salt], the “Test Example 5 Ratio (%)” value in assay [1] is reported as 17%.
Still for that read-out and setting: for `Cc1cn(C(=O)c2c(-c3c(F)cc(Cl)cc3F)noc2C(C)(C)F)c2cccc(/C=C/C(=O)O)c12` [Example 170, (2E)-3-(1-{[3-(4-Chloro-2,6-difluorophenyl)-5-(2-fluoropropan-2-yl)-1,2-oxazol-4-yl]carbonyl}-3-methyl-1H-indol-4-yl)prop-2-enoic acid tert-butylamine salt] the value was 35%; for `Cc1cc(Cl)cc(C)c1-c1noc(C(C)(C)F)c1C(=O)n1cc(C)c2c(/C=C/C(=O)O)cccc21` [Example 171, (2E)-3-(1-{[3-(4-Chloro-2,6-dimethylphenyl)-5-(2-fluoropropan-2-yl)-1,2-oxazol-4-yl]carbonyl}-3-methyl-1H-indol-4-yl)prop-2-enoic acid tert-butylamine salt], 22%.
Still for that read-out and setting: the same measure for `Cc1cc(Cl)cc(Cl)c1-c1noc(C(C)(C)F)c1C(=O)n1cc(C)c2c(/C=C/C(=O)O)cccc21` [Example 172, (2E)-3-(1-{[3-(2,4-Dichloro-6-methylphenyl)-5-(2-fluoropropan-2-yl)-1,2-oxazol-4-yl]carbonyl}-3-methyl-1H-indol-4-yl)prop-2-enoic acid tert-butylamine salt]: 8%; for `Cc1cn(C(=O)c2c(-c3ccc(Cl)cc3Cl)noc2C(C)(C)F)c2cccc(/C=C/C(=O)O)c12` [Example 173, (2E)-3-(1-{[3-(2,4-Dichlorophenyl)-5-(2-fluoropropan-2-yl)-1,2-oxazol-4-yl]carbonyl}-3-methyl-1H-indol-4-yl)prop-2-enoic acid tert-butylamine salt]: 2%.

Broadly, the IC50 is the concentration needed to halve the response being measured.
